Source: US12152008B2, “Cyclopentaimidazolones for the treatment of cancer” (The Broad Institute, Inc., priority 2018, dated 2024)

Assays:
Assay type in all cases: cell-based
NCIH2405 cells = test: Cell line viability screen, IC50 (CellTiter-Glo 3D); conditions: read-out: IC50 NCIH 2405
Method: (§1) Compounds were tested on patient-derived tumor organoids. Such organoids retain the three-dimensional structure of the tissue providing conditions that are more representative of in vivo behavior. Such organoids are described by Boj, Sylvia, et al., Cell 160: 324 (2015), hereby incorporated by reference in its entirety. Briefly, cultures of primary and metastatic pancreatic tumor specimens as patient-derived xenografts, 3D tumor organoids, and patient-derived cell lines were produced including a cohort of 21 patient-derived xenografts and 67 organoid cultures from primary and metastatic pancreatic tumor specimens. The functional dependencies of compounds in these patient-derived samples were measured on a 3D organoid and its matched 2D patient-derived cell lines. Conditions were optimized for performing high-throughput compound screening of 3D organoids, including suspension culture with Matrigel in 384-well plates, viability assessment with CellTiter-Glo 3D. […] FIG. 2A illustrates the dose dependent responses of an enantioenriched sample of Compound E1 synthesized using an enantio-purified sample of E1 in the (R,R)-configuration (70% ee) (e.g., E1(R,R)), an enantioenriched sample of E1 (“E1(S,S)”), and racemic mixtures of E1 on NCIH2405 cells (“E1”).
(§2) Table 1 gives the IC50 values (μM) of compounds having the structure of formula (I) (including E1(S,S) and E1(Rac) in patient-derived organoids and several cell lines. Compounds E1-E12 were synthesized as described above as racemates (i.e., E1(Rac)-R12(Rac), and E1(S,S) and E1(R,R) were synthesized using the (S,S)-5 reagent or (R,R)-5 reagent, respectively, as described above.

BxPC-3 = test: as above; conditions: BxPC3 cell line
Method: as §1, §2

PaTu 8902 = test: as above; conditions: PaTu 8902 cell line
Method: as §1, §2

OV-90 = test: as above; conditions: OV90 cell line
Method: as §1, §2

[1] = system: PF0039 patient-derived organoid; test: Patient-derived organoid viability screen, IC50; conditions: read-out: IC50 PF 0039
Method: as §1, §2

[2] = system: PF0172_T2 patient-derived organoid; test: Patient-derived organoid viability screen, IC50; conditions: read-out: IC50 PF 0172_T2
Method: as §1, §2

[3] = system: PF0202 patient-derived organoid; test: Patient-derived organoid viability screen, IC50; conditions: read-out: IC50 PF 0202
Method: as §1, §2

[4] = system: patient derived organoids and cell lines; test: Organoid and cell line screen, panel (FIG. 1); conditions: organoids PF0039, PF0071, PF0172-T2, PF0202, cell lines PaTu 8902, BxPC-3, NCIH2405, OV-90
Method: as §1

PF0071 organoids = test: PF0071 sensitivity screen (organoid dose response); design: key: Active: the analog typically with the lower IC50 value was identified as “active”; Inactive: the analog with the higher IC50 value was identified as “inactive.”; conditions: optically pure enantiomers
Method: as §1
E1(Rac), E5(Rac), and E8(Rac) were synthesized as racemic mixtures (i.e., without a chiral catalyst) and separated into six optically pure compounds.
With the absolute stereochemistry identified, the correlation between specific isomer and activity was determined for PF0071 organoids. Table 2 compares the activities of each set of racemates that were measured as compared to the designations illustrated in FIG. 2B.
The response to dose of several compounds (including a linkered analog) on PF0071 organoids were run. Enantiomers of E1, E5, and E8 were tested and compared to results with a linked compound synthesized as a racemic mixture as described above (identified in FIG. 3 as “Linked E1(Rac)”) having the structure: […]

With `COc1ccc(N2C(=O)N(CC(C)C)C3C(OC)C=CC32)cc1` (racemic) [E9(Rac)] the IC50 (NCIH2405 cells) was 58.8 µM, the IC50 (BxPC-3) was 56.4 µM and the IC50 (PaTu 8902) was 76.8 µM. It also gave an IC50 (OV-90) of 65.5 µM, an IC50 [1] of 43.5 µM and an IC50 [2] of 88.6 µM. It also gave an IC50 [3] of 47.1 µM.
For `CC(C)CN1C(=O)N(c2ccccc2)C2C=CC(O)C21` (racemic) [E2(Rac)], the IC50 (NCIH2405 cells) was > 100 µM, the IC50 (BxPC-3) was > 100 µM and the IC50 (PaTu 8902) was > 100 µM. The IC50 (OV-90) was > 100 µM, the IC50 [1] was 31.7 µM and the IC50 [2] was 4.05 µM. The IC50 [3] was > 100 µM.
In the case of `COC1C=CC2C1N(CC(C)C)C(=O)N2c1ccc(F)cc1` (racemic) [E11(Rac)], the IC50 (NCIH2405 cells) is reported as 10.2 µM, the IC50 (BxPC-3) is reported as > 100 µM and the IC50 (PaTu 8902) is reported as > 100 µM. For the same compound, the IC50 (OV-90) was 93.6 µM, the IC50 [1] was 28.2 µM and the IC50 [2] was 4.08 µM. The IC50 [3] was 49.5 µM.
With `COC1C=CC2C1N(CC(C)C)C(=O)N2c1ccccc1` (racemic) [Compound E1] the IC50 (NCIH2405 cells) was 7.41 µM, the IC50 (BxPC-3) was > 100 µM and the IC50 (PaTu 8902) was > 100 µM. For the same compound, the IC50 (OV-90) was > 100 µM, the IC50 [1] was 22.3 µM and the IC50 [2] was 3.41 µM. For the same compound, the IC50 [3] was 55.4 µM and the “Effect on viability across panel” value [4] was “dose-dependent effect on only a subset of organoids”.
With `COC1C=CC2C1N(CC(C)C)C(=O)N2c1ccc(C#N)cc1` (racemic) [E7(Rac)] the IC50 (NCIH2405 cells) was > 100 µM, the IC50 (BxPC-3) was > 100 µM and the IC50 (PaTu 8902) was 75.1 µM. For the same compound, the IC50 (OV-90) was > 100 µM, the IC50 [1] was > 100 µM and the IC50 [2] was > 100 µM. The IC50 [3] was ≥ 100 µM.
For `CO[C@@H]1C=C[C@@H]2[C@H]1N(CC(C)C)C(=O)N2c1ccc(Cl)cc1` (stereo in doubt), the “Activity (active or inactive)” value (PF0071 organoids) was “Active”.
In the case of `CO[C@H]1C=C[C@H]2[C@@H]1N(CC(C)C)C(=O)N2c1ccc(Cl)cc1` (stereo in doubt), the “Activity (active or inactive)” value (PF0071 organoids) is reported as “Inactive”.
In the case of `COC1C=CC2C1N(CC(C)C)C(=O)N2c1ccc(Cl)cc1` (racemic) [E8(Rac)], the IC50 (NCIH2405 cells) is reported as 2.58 µM, the IC50 (BxPC-3) is reported as 17.3 µM and the IC50 (PaTu 8902) is reported as 33.9 µM. The IC50 (OV-90) was 30.7 µM, the IC50 [1] was 8.19 µM and the IC50 [2] was 2.15 µM. It also gave an IC50 [3] of 27.9 µM.
In the case of `COC1C=CC2C1N(CC(C)C)C(=O)N2c1ccc(C)cc1` (racemic) [E12(Rac)], the IC50 (NCIH2405 cells) is reported as 2.04 µM, the IC50 (BxPC-3) is reported as > 100 µM and the IC50 (PaTu 8902) is reported as > 100 µM. For the same compound, the IC50 (OV-90) was 85.9 µM, the IC50 [1] was 7.42 µM and the IC50 [2] was 1.21 µM. For the same compound, the IC50 [3] was 51.4 µM.
For `CO[C@@H]1C=C[C@@H]2[C@H]1N(CC(C)C)C(=O)N2c1ccccc1` (stereo in doubt), the “Activity (active or inactive)” value (PF0071 organoids) was “Active”.
With `CO[C@H]1CC[C@H]2[C@@H]1N(CC(C)C)C(=O)N2c1ccccc1` (stereo in doubt) the “Activity (active or inactive)” value (PF0071 organoids) was “Inactive”.
For `COC1CCC2C1N(CC(C)C)C(=O)N2c1ccccc1` (racemic) [E5(Rac)], the IC50 (NCIH2405 cells) was 4.11 µM, the IC50 (BxPC-3) was 64.4 µM and the IC50 (PaTu 8902) was > 100 µM. The IC50 (OV-90) was 83.3 µM, the IC50 [1] was 7.26 µM and the IC50 [2] was 1.16 µM. It also gave an IC50 [3] of 16.5 µM.
In the case of `COC1C=CC2C1N(C)C(=O)N2c1ccccc1` (racemic) [E3(Rac)], the IC50 (NCIH2405 cells) is reported as > 100 µM, the IC50 (BxPC-3) is reported as > 100 µM and the IC50 (PaTu 8902) is reported as > 100 µM. The IC50 (OV-90) was > 100 µM, the IC50 [1] was > 100 µM and the IC50 [2] was 85.8 µM. The IC50 [3] was > 100 µM.
`CO[C@@H]1CC[C@@H]2[C@H]1N(CC(C)C)C(=O)N2c1ccccc1` (stereo in doubt) was tested, and the “Activity (active or inactive)” value (PF0071 organoids) was “Active”.
`CCOC1C=CC2C1N(CC(C)C)C(=O)N2c1ccccc1` (racemic) [E4(Rac)] was tested, and the IC50 (NCIH2405 cells) was 14.3 µM, the IC50 (BxPC-3) was 96.4 µM and the IC50 (PaTu 8902) was > 100 µM. It also gave an IC50 (OV-90) of 76.9 µM, an IC50 [1] of 25.8 µM and an IC50 [2] of 3.4 µM. The IC50 [3] was 40.2 µM.
`CO[C@H]1C=C[C@H]2[C@@H]1N(CC(C)C)C(=O)N2c1ccccc1` (stereo in doubt) was tested, and the “Activity (active or inactive)” value (PF0071 organoids) was “Inactive”.
For `COC1C=CC2C1N(CC(C)C)C(=O)N2c1cccc(F)c1` (racemic) [E10(Rac)], the IC50 (NCIH2405 cells) was 3.44 µM, the IC50 (BxPC-3) was 66.6 µM and the IC50 (PaTu 8902) was > 100 µM. It also gave an IC50 (OV-90) of 83.9 µM, an IC50 [1] of 8.14 µM and an IC50 [2] of 2.22 µM. For the same compound, the IC50 [3] was 36.9 µM.
With `COC1C=CC2C1N(CC(C)C)C(=O)N2Cc1ccccc1` (racemic) [E6(Rac)] the IC50 (NCIH2405 cells) was > 100 µM, the IC50 (BxPC-3) was > 100 µM and the IC50 (PaTu 8902) was > 100 µM. For the same compound, the IC50 (OV-90) was 96.4 µM, the IC50 [1] was 40.7 µM and the IC50 [2] was 17.4 µM. For the same compound, the IC50 [3] was 65.3 µM.
